Laboratory results taken from patent US20240252463A1, “METHODS OF TREATING FIBROTIC PATHOLOGIES” (Mayo Foundation for Medical Education and Research, priority 2018, published 2024).
Counter-ions that a name gives are not always drawn. Like-named read-outs stand apart in the source and are kept apart here. Where no end group is shown, it is not given here.

Experiments:
Type in all cases: cell-based, human
[1] = test system: cAMP; experiment: cAMP Assay (cAMP-Glo) in lung fibroblasts; settings: IMR-90 lung fibroblasts (FIG. 31F-31H)
Experimental: cAMP Assay: IPF patient derived fibroblasts were plated in EMEM containing 10% FBS overnight. […] 20 minutes prior to cell lysis media was removed and cells were treated with “induction buffer” containing nonselective phosphodiesterase inhibitors and the indicated concentration of compound(s). Luminescence was measured on a Flexstation 3 (Molecular Devices) plate reader.

[2] = test system: YAP/TAZ; experiment: YAP/TAZ nuclear localization in IMR-90 and other mesenchymal cells (cardiac, dermal fibroblasts, hepatic stellate cells); settings: for YAP/TAZ nuclear localization in confluent fibroblasts, ligand alone: ET-1 100 nM, LPA 10 μM, 5-HT 1 μM, 2 hours (FIG. 2c); for YAP/TAZ nuclear localization: fibroblasts on stiff matrix (plastic), IMR-90 cells treated 2 hours (FIG. 2a)
Experimental: FIGS. 2A-2E Dopamine Receptor D1 agonism blocks YAP/TAZ nuclear localization. 2a. Selective agonists of dopamine receptor D1 with varying efficacy inhibit YAP/TAZ nuclear localization; this effect can be overcome by treatment with a DRD1 receptor antagonist (SCH 39166, 3 μM), (Dihydrexidine, 10 μM). IMR-90 cells treated 2 hours prior to fixation. N=4 (****p<0.0001 vs. 0.1% DMSO vehicle control). Scale bar represents 100 μm. 2b. Consistent with DRD1 expression, DHX inhibits YAP/TAZ only in fibroblasts (IPF-FBs) but not in epithelial (NHEpCs) or endothelial (NHMVECs) cells. N=4 (****p<0.0001 vs. 0.1% DMSO vehicle control) 2c. YAP/TAZ localization is induced through multiple ligands which stimulate receptors coupled to Galphαi/q/12, endothelin 1 (ET-1: 100 nM), lysophosphatidic acid (LPA: 10 μM), and serotonin (5-HT: 1 μM). In each case DHX treatment (10 μM) can reverse this effect on YAP/TAZ. IMR-90 cells plated densely onto plastic cell culture plates for 24 hours in media containing 0.1% FBS, treated for 2 hours prior to fixation. N=4 (****p<0.0001 vs. 0.1% DMSO vehicle control), (++++p<0.0001 vs. the respective stimulated agonist ET-1, LPA, or 5-HT). Scale bar represents 100 μm. 2d. cAMP measured in IPF patient-derived fibroblasts treated for 20 minutes with DHX (10 μM)+/−SCH 39166 (3 μM). N=3 (**p<0.01 vs. 0.1% DMSO vehicle control). 2e. Phosphorylation of YAP by Rho-kinase inhibitor Y27632 (20 μM), direct cAMP stimulator Forskolin (10 μM), or DHX (10 μM). IMR-90 cells cultured for 24 hours in media containing 0.1% FBS, treated 2 hours prior to fixation. N=3 (***p<0.001 vs. 0.1% DMSO vehicle control).
FIGS. 6A-6C DHX inhibits YAP/TAZ localization in fibroblasts from multiple tissues. 6a. Mesenchymal cells derived from lung (IMR-90 and IPF-FBs) hepatic stellate cells (HSC), human adult cardiac fibroblasts, (HACF) and human dermal fibroblasts (HDF) were plated densely (Confluent) or sparsely (Control and all remaining conditions) onto plastic cell culture plates for 24 hours in media containing 0.1% FBS, treated for 2 hours with Rho kinase inhibitor Y27632, adenylate cyclase activator forskolin and DHX. N=4, Cells that were positive for nuclear YAP/TAZ were quantified by automated image analysis. 6b. Time course for DHX inhibition of YAP/TAZ nuclear localization. IMR-90 cells, N=3 (***p<0.001 vs. 0.1% DMSO vehicle control). 6c. […] N=3.
(§1) ImmunofluorescenceMicroscopy: Cells were plated into 96 well plates (Corning 3603) in their specific growth media and allowed to attach (8 hours). Media was then exchanged for the indicated conditions for each experiment. Cells were fixed in 3.7% formalin (Sigma-Aldrich), permeabilized in 0.25% Triton X-100 (Sigma-Aldrich) and then blocked with 1% BSA for 1 h. Cells or tissue sections were incubated overnight with mouse monoclonal antibody against αSMA (Sigma-Aldrich F3777), and/or a rabbit monoclonal antibody against YAP/TAZ (Cell Signaling D24E4) diluted 1:200 in PBS with 1% BSA. Cells were then washed and exposed to flourescence-conjugated secondary antibodies (Invitrogen) diluted 1:1000 and DAPI (Thermo Fisher Scientific). Images were taken with a Cytation5 (BioTek) microscope. For scoring αSMA positive cells (FIG. 3b), an observer blinded to the treatment conditions counted αSMA-positive cells using a visual threshold for bright fibrous staining; a minimum of 200 cells was counted for each condition. YAP/TAZ localization was quantified (FIG. 2, 6, 8) using Gen5 (Biotek) software. Images were taken at 4× magnification of both DAPI and YAP/TAZ staining. […] Quantification of double positive (YAP/TAZ and αSMA) cells from lung tissue sections (FIG. 4d) was performed similarly; however separate thresholds were established for both YAP/TAZ and αSMA. A minimum of 4000 cells was quantified for each mouse.

[3] = test system: αSMA; experiment: αSMA intensity (fibroblast activation) in IPF patient-derived lung fibroblasts + TGFβ; settings: 1 μM + TGFβ, treated for 72 hours; for activity at 1 µM: Homo sapiens, SMA
Experimental: as §1

[4] = test system: YAP/TAZ; experiment: YAP/TAZ nuclear localization (immunofluorescence, automated imaging) in IPF patient-derived lung fibroblasts; settings: 10 μM, treated 2 hours prior to fixation; for Nuclear localization (% of total cells) IPF-1: patient sample IPF-1; for Nuclear localization (% of total cells) IPF-2: patient sample IPF-2; for Nuclear localization (% of total cells) IPF-3: patient sample IPF-3; for Nuclear localization (% of total cells) IPF-4: patient sample IPF-4
Experimental: 27A. […] IPF patient-derived lung fibroblasts cells treated 2 hours prior to fixation with diverse dopaminergic agonists (10 μM). N=4 different patient samples. % nuclear localization of YAP/TAZ was determined using automated imaging software. Scale bar represents 100 μm. 27C. cAMP measured in IPF patient-derived fibroblasts treated for 20 minutes with DHX. N=3. 27E.
as §1

[5] = patient sample IPF-1, read-out: αSMA intensity (% of DMSO control) IPF-1
[6] = patient sample IPF-2, read-out: αSMA intensity (% of DMSO control) IPF-2
[7] = patient sample IPF-3, read-out: αSMA intensity (% of DMSO control) IPF-3
[8] = patient sample IPF-4, read-out: αSMA intensity (% of DMSO control) IPF-4

CN1CCc2ccccc2Cc2[nH]c3ccccc3c2CC1 [LE-300]
antagonism of DHX's elevation of cAMP, inhibition of YAP/TAZ nuclear localization and of YAP/TAZ target genes [1]: block DHX's elevation of cAMP

NCCc1c[nH]c2ccc(O)cc12 [serotonin]
YAP/TAZ nuclear localization in confluent fibroblasts, ligand alone [2]: enhance YAP/TAZ nuclear localization

lysophosphatidic acid
YAP/TAZ nuclear localization in confluent fibroblasts, ligand alone [2]: enhance YAP/TAZ nuclear localization

CCCCC[C@H](O)/C=C/[C@H]1[C@H](O)CC(=O)[C@@H]1C/C=C\CCCC(=O)O [PGE2, Prostaglandin E2]
potency of inhibition of YAP/TAZ nuclear localization, normal lung fibroblasts vs IPF-derived ([2]; FIG. 6c): reduced potency

CN1CCc2cc(Cl)c(O)cc2[C@H]2c3ccccc3CC[C@@H]21 [SCH-39166]
antagonism of DHX's elevation of cAMP, inhibition of YAP/TAZ nuclear localization and of YAP/TAZ target genes [1]: block DHX's elevation of cAMP

endothelin-1: GPCR ligand implicated in promotion of fibrosis (CSCSSLMDKECVYFCHLDIIW; ends and bridges not checked; cysteine pairing not given here; UniProt P05305 53-73, looked up)
YAP/TAZ nuclear localization in confluent fibroblasts, ligand alone [2]: enhance YAP/TAZ nuclear localization

Oc1ccc(C2CNCCc3c2cc(O)c(O)c3Cl)cc1 (stereo not drawn) [Fenoldopam•HCl, Fenoldopam]
activity at 1 µM [3, 5]: 77.3% | activity at 1 µM [3, 6]: 45.3% | activity at 1 µM [3, 7]: 69.4% | activity at 1 µM [3, 8]: 63.4% | YAP/TAZ nuclear localization [2]: reduced nuclear localization of YAP/TAZ

CCCN(CCc1ccccc1)C1CCc2c(O)cccc2C1.Cl (racemic) [(±)-2-(N-phenylethyl-N-propyl)amino-5-hydroxytetralin]
Nuclear localization (% of total cells) IPF-1 [4]: 68.85 % of total cells | Nuclear localization (% of total cells) IPF-2 [4]: 60.86 % of total cells | Nuclear localization (% of total cells) IPF-3 [4]: 68 % of total cells | Nuclear localization (% of total cells) IPF-4 [4]: 56.552 % of total cells | αSMA intensity (% of DMSO control) IPF-1 ([3]; patient sample IPF-1): 65.43 % of DMSO control | αSMA intensity (% of DMSO control) IPF-2 ([3]; patient sample IPF-2): 52.77 % of DMSO control | αSMA intensity (% of DMSO control) IPF-3 ([3]; patient sample IPF-3): 60.4844 % of DMSO control | αSMA intensity (% of DMSO control) IPF-4 ([3]; patient sample IPF-4): 51.1 % of DMSO control

CCCN(CCC)CCc1ccc(O)c(O)c1 [Dipropyldopamine•HBr, Dipropyldopamine]
Nuclear localization (% of total cells) IPF-1 [4]: 69.18 % of total cells | Nuclear localization (% of total cells) IPF-2 [4]: 74.36 % of total cells | Nuclear localization (% of total cells) IPF-3 [4]: 65.5 % of total cells | Nuclear localization (% of total cells) IPF-4 [4]: 51.82 % of total cells | αSMA intensity (% of DMSO control) IPF-1 ([3]; patient sample IPF-1): 48.72 % of DMSO control | αSMA intensity (% of DMSO control) IPF-2 ([3]; patient sample IPF-2): 28.11 % of DMSO control | αSMA intensity (% of DMSO control) IPF-3 ([3]; patient sample IPF-3): 40.34 % of DMSO control | αSMA intensity (% of DMSO control) IPF-4 ([3]; patient sample IPF-4): 25.86 % of DMSO control

(R)-(−)-Apomorphine [(R)-(−)-Apomorphine•HCl]
Nuclear localization (% of total cells) IPF-1 [4]: 29.21 % of total cells | Nuclear localization (% of total cells) IPF-2 [4]: 31.97 % of total cells | Nuclear localization (% of total cells) IPF-3 [4]: 27.47 % of total cells | Nuclear localization (% of total cells) IPF-4 [4]: 17.86 % of total cells | αSMA intensity (% of DMSO control) IPF-1 ([3]; patient sample IPF-1): 7.067 % of DMSO control | αSMA intensity (% of DMSO control) IPF-2 ([3]; patient sample IPF-2): 1.173 % of DMSO control | αSMA intensity (% of DMSO control) IPF-3 ([3]; patient sample IPF-3): 0.9618 % of DMSO control | αSMA intensity (% of DMSO control) IPF-4 ([3]; patient sample IPF-4): 33.67 % of DMSO control

NC[C@@H]1O[C@H](C23CC4CC(CC(C4)C2)C3)Cc2c1ccc(O)c2O [A-77636•HCl•H2O]
Nuclear localization (% of total cells) IPF-1 [4]: 26.46 % of total cells | Nuclear localization (% of total cells) IPF-2 [4]: 30.88 % of total cells | Nuclear localization (% of total cells) IPF-3 [4]: 41.33 % of total cells | Nuclear localization (% of total cells) IPF-4 [4]: 37.79 % of total cells | activity at 1 µM [3, 5]: 5.81% | activity at 1 µM [3, 6]: 0.719% | activity at 1 µM [3, 7]: 0.0677% | activity at 1 µM [3, 8]: 12.4%

CCCN(CCC)[C@@H]1CCc2c(OC)cccc2[C@@H]1C.O=C(O)/C=C\C(=O)O [(+)-UH 232 maleate]
Nuclear localization (% of total cells) IPF-1 [4]: 61.9521 % of total cells | Nuclear localization (% of total cells) IPF-2 [4]: 68 % of total cells | Nuclear localization (% of total cells) IPF-3 [4]: 71.85 % of total cells | Nuclear localization (% of total cells) IPF-4 [4]: 67.27 % of total cells | αSMA intensity (% of DMSO control) IPF-1 ([3]; patient sample IPF-1): 82.91 % of DMSO control | αSMA intensity (% of DMSO control) IPF-2 ([3]; patient sample IPF-2): 63.85 % of DMSO control | αSMA intensity (% of DMSO control) IPF-3 ([3]; patient sample IPF-3): 85.81 % of DMSO control | αSMA intensity (% of DMSO control) IPF-4 ([3]; patient sample IPF-4): 65.71 % of DMSO control

CN1Cc2ccccc2C2c3cccc4[nH]cc(c34)CC21 (stereo not drawn) [CY 208-243]
Nuclear localization (% of total cells) IPF-1 [4]: 20.52 % of total cells | Nuclear localization (% of total cells) IPF-2 [4]: 39.79 % of total cells | Nuclear localization (% of total cells) IPF-3 [4]: 41.17 % of total cells | Nuclear localization (% of total cells) IPF-4 [4]: 19.82 % of total cells | activity at 1 µM [3, 5]: 21% | activity at 1 µM [3, 6]: 2.28% | activity at 1 µM [3, 7]: 2.61% | activity at 1 µM [3, 8]: 9.64%

Oc1cc2c(c(Cl)c1O)CCNCC2c1ccccc1 (stereo not drawn) [SKF-81297]
YAP/TAZ nuclear localization [2]: reduced nuclear localization of YAP/TAZ
